The test system of assay [1] is Escherichia coli. The experiment in a line: Photocleavage activity against pUC18 DNA assessed as conversion supercoiled to nicked circular form relative to H2pXy-Zn complex.
Assay [2] has as its system Escherichia coli. As to the kind of experiment: Photocleavage activity against pUC18 DNA assessed as increase in conversion supercoiled to nicked circular form in presence of 20% DMSO after 30 mins.
Assay [3] deals with Escherichia coli. As to the kind of experiment: Photocleavage activity against pUC18 DNA assessed as conversion supercoiled to nicked circular form relative to H2TMPyP.
The test system of assay [4] is Escherichia coli. As to the kind of experiment: Photocleavage activity against pUC18 DNA assessed as conversion supercoiled to nicked circular form relative to H2mXy-Zn complex.
In assay [5] the test system is Escherichia coli. The experiment in a line: Photocleavage activity against pUC18 DNA assessed as conversion supercoiled to nicked circular form relative to H2pXy.

We go through two compounds from ChEMBL document CHEMBL1140000, “Synthetic control of interchromophoric interaction in cationic bis-porphyrins toward efficient DNA photocleavage and singlet oxygen production in aqueous solution” (Bioorg Med Chem, 2007).

With `C[n+]1ccc(-c2c3nc(c(-c4cc[n+](C)cc4)c4ccc([nH]4)c(-c4cc[n+](C)cc4)c4nc(c(-c5ccc(C(=O)NCc6ccc(CNC(=O)c7ccc(-c8c9nc(c(-c%10cc[n+](C)cc%10)c%10ccc([nH]%10)c(-c%10cc[n+](C)cc%10)c%10nc(c(-c%11cc[n+](C)cc%11)c%11ccc8[nH]%11)C=C%10)C=C9)cc7)cc6)cc5)c5ccc2[nH]5)C=C4)C=C3)cc1`, the Activity with Escherichia coli [1] stood at 26%; with Escherichia coli [2] it was 95%.

As for `C[n+]1ccc(-c2c3nc(c(-c4cc[n+](C)cc4)c4ccc([nH]4)c(-c4cc[n+](C)cc4)c4nc(c(-c5ccc(C(=O)NCc6cccc(CNC(=O)c7ccc(-c8c9nc(c(-c%10cc[n+](C)cc%10)c%10ccc([nH]%10)c(-c%10cc[n+](C)cc%10)c%10nc(c(-c%11cc[n+](C)cc%11)c%11ccc8[nH]%11)C=C%10)C=C9)cc7)c6)cc5)c5ccc2[nH]5)C=C4)C=C3)cc1`, the Activity in the assay on Escherichia coli [1] is 6%; in the assay with Escherichia coli [3], 28%; in the assay with Escherichia coli [4], 12%; with Escherichia coli [5], 25%.
